From PubChem BioAssay AID1259407 (Chemical Carcinogenesis Research Information System (CCRIS), 2018)
Calls of active or inactive are those of the source. No rule for the calls is given here.

Test system: CCRIS mutagenicity, Ames/micronucleus/aberration tests
Test: CCRIS mutagenicity studies
[1] = Test System: AMES SALMONELLA TYPHIMURIUM, Strain/Indicator: TA98, Metabolic Activation: NONE, Method: STANDARD PLATE
[2] = Test System: AMES SALMONELLA TYPHIMURIUM, Strain/Indicator: TA100, Metabolic Activation: NONE, Method: STANDARD PLATE
[3] = Test System: AMES SALMONELLA TYPHIMURIUM, Strain/Indicator: TA98, Metabolic Activation: HAMSTER, LIVER, S-9, AROCLOR 1254 (10%), Method: PREINCUBATION
[4] = Test System: AMES SALMONELLA TYPHIMURIUM, Strain/Indicator: TA98, Metabolic Activation: NONE, Method: PREINCUBATION
[5] = Test System: AMES SALMONELLA TYPHIMURIUM, Strain/Indicator: TA98, Metabolic Activation: RAT, LIVER, S-9, AROCLOR 1254 (10%), Method: PREINCUBATION
[6] = Test System: AMES SALMONELLA TYPHIMURIUM, Strain/Indicator: TA100, Metabolic Activation: HAMSTER, LIVER, S-9, AROCLOR 1254 (10%), Method: PREINCUBATION
[7] = Test System: AMES SALMONELLA TYPHIMURIUM, Strain/Indicator: TA100, Metabolic Activation: NONE, Method: PREINCUBATION
[8] = Test System: AMES SALMONELLA TYPHIMURIUM, Strain/Indicator: TA100, Metabolic Activation: RAT, LIVER, S-9, AROCLOR 1254 (10%), Method: PREINCUBATION
[9] = Test System: AMES SALMONELLA TYPHIMURIUM, Strain/Indicator: TA1535, Metabolic Activation: HAMSTER, LIVER, S-9, AROCLOR 1254 (10%), Method: PREINCUBATION
[10] = Test System: AMES SALMONELLA TYPHIMURIUM, Strain/Indicator: TA1535, Metabolic Activation: NONE, Method: PREINCUBATION
[11] = Test System: AMES SALMONELLA TYPHIMURIUM, Strain/Indicator: TA1535, Metabolic Activation: RAT, LIVER, S-9, AROCLOR 1254 (10%), Method: PREINCUBATION

Q: What does the source list for `CNC(=O)ONC(C)=O`?
A: mutagenic call [1]: active; positive; mutagenic call (Test System: AMES SALMONELLA TYPHIMURIUM, Strain/Indicator: TA98, Metabolic Activation: RAT, LIVER, S-9, Method: STANDARD PLATE): active; positive; mutagenic call [2]: active; positive

Q: `c1ccc(CSCc2ccccc2)cc1` was tested. Which mutagenic call (Test System: AMES SALMONELLA TYPHIMURIUM, Strain/Indicator: TA97, Metabolic Activation: HAMSTER, LIVER, S-9, AROCLOR 1254 (10%), Method: PREINCUBATION) did it give?
A: inactive; negative

Q: What about the mutagenic call (Test System: AMES SALMONELLA TYPHIMURIUM, Strain/Indicator: TA97, Metabolic Activation: HAMSTER, LIVER, S-9, AROCLOR 1254 (30%), Method: PREINCUBATION) of the same compound?
A: inactive; negative

Q: And the mutagenic call (Test System: AMES SALMONELLA TYPHIMURIUM, Strain/Indicator: TA97, Metabolic Activation: NONE, Method: PREINCUBATION)?
A: inactive; negative

Q: And the mutagenic call (Test System: AMES SALMONELLA TYPHIMURIUM, Strain/Indicator: TA97, Metabolic Activation: RAT, LIVER, S-9, AROCLOR 1254 (10%), Method: PREINCUBATION)?
A: inactive; negative

Q: And the mutagenic call (Test System: AMES SALMONELLA TYPHIMURIUM, Strain/Indicator: TA97, Metabolic Activation: RAT, LIVER, S-9, AROCLOR 1254 (30%), Method: PREINCUBATION)?
A: inactive; negative

Q: What about the mutagenic call [3] of the same compound?
A: inactive; negative

Q: And the mutagenic call (Test System: AMES SALMONELLA TYPHIMURIUM, Strain/Indicator: TA98, Metabolic Activation: HAMSTER, LIVER, S-9, AROCLOR 1254 (30%), Method: PREINCUBATION)?
A: inactive; negative

Q: What about the mutagenic call [4] of the same compound?
A: inactive; negative

Q: What about the mutagenic call [5] of the same compound?
A: inactive; negative

Q: And the mutagenic call (Test System: AMES SALMONELLA TYPHIMURIUM, Strain/Indicator: TA98, Metabolic Activation: RAT, LIVER, S-9, AROCLOR 1254 (30%), Method: PREINCUBATION)?
A: inactive; negative

Q: And the mutagenic call [6]?
A: inactive; negative

Q: What about the mutagenic call (Test System: AMES SALMONELLA TYPHIMURIUM, Strain/Indicator: TA100, Metabolic Activation: HAMSTER, LIVER, S-9, AROCLOR 1254 (30%), Method: PREINCUBATION) of the same compound?
A: inactive; negative

Q: What about the mutagenic call [7] of the same compound?
A: inactive; negative

Q: And the mutagenic call [8]?
A: inactive; negative

Q: And the mutagenic call (Test System: AMES SALMONELLA TYPHIMURIUM, Strain/Indicator: TA100, Metabolic Activation: RAT, LIVER, S-9, AROCLOR 1254 (30%), Method: PREINCUBATION)?
A: inactive; negative

Q: And the mutagenic call [9]?
A: inactive; negative

Q: What about the mutagenic call (Test System: AMES SALMONELLA TYPHIMURIUM, Strain/Indicator: TA1535, Metabolic Activation: HAMSTER, LIVER, S-9, AROCLOR 1254 (30%), Method: PREINCUBATION) of the same compound?
A: inactive; negative

Q: And the mutagenic call [10]?
A: inactive; negative

Q: What about the mutagenic call [11] of the same compound?
A: inactive; negative

Q: And the mutagenic call (Test System: AMES SALMONELLA TYPHIMURIUM, Strain/Indicator: TA1535, Metabolic Activation: RAT, LIVER, S-9, AROCLOR 1254 (30%), Method: PREINCUBATION)?
A: inactive; negative

Q: `O=C1c2c(ccc3ccccc23)-c2ccc3ccccc3c21` was tested. Which mutagenic call [1] did it give?
A: inactive; negative

Q: And the mutagenic call [2]?
A: inactive; negative

Q: Which mutagenic call [3] does the source give for `CCCCOC(=O)c1ccccc1C(=O)OCCCC` here?
A: inactive; negative

Q: What about the mutagenic call [4] of the same compound?
A: inactive; negative

Q: And the mutagenic call [5]?
A: inactive; negative

Q: And the mutagenic call [6]?
A: inactive; negative

Q: What about the mutagenic call [7] of the same compound?
A: inactive; negative

Q: What about the mutagenic call [2] of the same compound?
A: active; positive

Q: What about the mutagenic call [8] of the same compound?
A: inactive; negative

Q: What about the mutagenic call (Test System: AMES SALMONELLA TYPHIMURIUM, Strain/Indicator: TA100, Metabolic Activation: S-9, Method: STANDARD PLATE) of the same compound?
A: inactive; negative

Q: What about the mutagenic call [9] of the same compound?
A: inactive; negative

Q: What about the mutagenic call [10] of the same compound?
A: inactive; negative

Q: What about the mutagenic call (Test System: AMES SALMONELLA TYPHIMURIUM, Strain/Indicator: TA1535, Metabolic Activation: NONE, Method: STANDARD PLATE) of the same compound?
A: inactive; negative

Q: And the mutagenic call [11]?
A: inactive; negative

Q: What about the mutagenic call (Test System: AMES SALMONELLA TYPHIMURIUM, Strain/Indicator: TA1535, Metabolic Activation: S-9, Method: STANDARD PLATE) of the same compound?
A: inactive; negative

Q: What about the mutagenic call (Test System: AMES SALMONELLA TYPHIMURIUM, Strain/Indicator: TA1537, Metabolic Activation: HAMSTER, LIVER, S-9, AROCLOR 1254 (10%), Method: PREINCUBATION) of the same compound?
A: inactive; negative

Q: What about the mutagenic call (Test System: AMES SALMONELLA TYPHIMURIUM, Strain/Indicator: TA1537, Metabolic Activation: NONE, Method: PREINCUBATION) of the same compound?
A: inactive; negative

Q: What about the mutagenic call (Test System: AMES SALMONELLA TYPHIMURIUM, Strain/Indicator: TA1537, Metabolic Activation: RAT, LIVER, S-9, AROCLOR 1254 (10%), Method: PREINCUBATION) of the same compound?
A: inactive; negative

Q: And the mutagenic call (Test System: MOUSE LYMPHOMA, Strain/Indicator: L5178Y (TK+/TK-), Metabolic Activation: NONE, Method: SUSPENSION/PLATE)?
A: inactive; negative

Q: What about the mutagenic call (Test System: MOUSE LYMPHOMA, Strain/Indicator: L5178Y (TK+/TK-), Metabolic Activation: RAT LIVER S-9, Method: SUSPENSION/PLATE) of the same compound?
A: active; positive

Q: `CCOC(=O)Cc1c(C(=O)O)c2ccccc2n1C` was tested. Which mutagenic call (Test System: AMES SALMONELLA TYPHIMURIUM, Strain/Indicator: TA97, Metabolic Activation: NONE, Method: STANDARD PLATE) did it give?
A: inactive; negative

Q: And the mutagenic call (Test System: AMES SALMONELLA TYPHIMURIUM, Strain/Indicator: TA97, Metabolic Activation: RAT, LIVER, S-9, AROCLOR 1254 (4%, 10%), Method: STANDARD PLATE)?
A: inactive; negative

Q: And the mutagenic call [1]?
A: inactive; negative

Q: And the mutagenic call (Test System: AMES SALMONELLA TYPHIMURIUM, Strain/Indicator: TA98, Metabolic Activation: RAT, LIVER, S-9, AROCLOR 1254 (4%, 10%), Method: STANDARD PLATE)?
A: inactive; negative

Q: And the mutagenic call [2]?
A: inactive; negative

Q: And the mutagenic call (Test System: AMES SALMONELLA TYPHIMURIUM, Strain/Indicator: TA100, Metabolic Activation: RAT, LIVER, S-9, AROCLOR 1254 (4%, 10%), Method: STANDARD PLATE)?
A: inactive; negative

Q: What about the mutagenic call (Test System: AMES SALMONELLA TYPHIMURIUM, Strain/Indicator: TA102, Metabolic Activation: NONE, Method: STANDARD PLATE) of the same compound?
A: inactive; negative

Q: And the mutagenic call (Test System: AMES SALMONELLA TYPHIMURIUM, Strain/Indicator: TA102, Metabolic Activation: RAT, LIVER, S-9, AROCLOR 1254 (4%, 10%), Method: STANDARD PLATE)?
A: inactive; negative
